From patent publication US12649753B2, “Inositol derivative and use thereof” (SHANGHAI SENHUI MEDICINE CO., LTD., priority 2020, dated 2026)

Assay: Spectrophotometric pharmacodynamics (PD) assay: inhibition of hydroxyapatite generation in human plasma
Assay type: biochemical
Details: human plasma (EDTA-K2), phosphate 1.5 mM and calcium 12.5 mM final, 25° C., slope of absorbance at 550 nm between 6 min and 24 min; read-out: IC50 (Mean ± SD)
Protocol: The inhibition effect of the test compounds on the generation of the human plasma hydroxyapatite (HAP) was determined by the spectrophotometric pharmacodynamics (PD) assay.
1.1 Preparation of Reagents • 1) Human plasma anticoagulated with EDTA-K2. • 2) Mixed solution: disodium hydrogen phosphate 5 mM, calcium chloride 41.67 mM, adjusted to pH 7.4 and filtered through a 0.22 μm filter. • 3) Sodium chloride solution: 0.15 M, adjusted to pH 7.4 and filtered through a 0.22 μm filter.
2.1 Test Procedures • 1) The test compounds were prepared using a 0.15 M sodium chloride solution. • 2) The human plasma sample was reprocessed. A sufficient amount of plasma was taken and centrifuged at room temperature at 10000 g for 30 min for later use. • 3) The plasma was added to a 96 well plate at 75 μL/well. • 4) The candidate drug was added at 5 μL/well. • 5) The mixed solution of disodium hydrogen phosphate and calcium chloride was added at […], with expected final concentrations of 1.5 mM and 12.5 mM, respectively. • 6) The plate was incubated at room temperature (25° C.) on a shaker (750 rpm), and the absorbance at a wavelength of 550 nm was measured every 3 min. • 7) The final reading was set as the slope of the change in absorbance between 6 min and 24 min.

IC50: 1860 ± 142 nM
SMILES: COCCOCCO[C@@H]1C(OP(=O)(O)O)[C@H](OCCOCCOC)[C@@H](OP(=O)(O)O)C(OP(=O)(O)O)[C@H]1OP(=O)(O)O (stereo partly shown) [INS 3001]
